These results are taken from patent US20060281807A1, “Quassinoid compositions for the treatment of cancer and other proliferative diseases” (Tapestry Pharmaceuticals, Inc., priority 2005, published 2006).

The test system of one test is SK-N-AS. Kind of test: MTT cytotoxicity assay (% kill), SK-N-AS. It counts as cell-based, human. Conditions: 1.0 μg/mL, MTT after five days. As to the method: (§1) The following human tumor cell lines were obtained and cultured in sextuplicate microwells at 37° C. and 5% CO2 in humidified air and in 10% FBS in Eagles MEM: SK—N—FI, SK—N-AS, LS-174T, WiDr, HuTu-80, MCF7, NCI-AR, MES-Sar, and PL-45. Cells from each cell line were separately treated with an amount of one of the compounds of Formula I, II, or III (see Table 1). Cells were exposed to each compound (0.1 μg/mL or 1.0 μg/mL) for one hour or 24 hours, rinsed with drug-free media, and incubated for an additional five days. The number of viable cells after five days was measured using an MTT (3-(4,5-dimethylthiazol-2-yl)-2,5-diphenyltetrazolium bromide) assay (see, e.g., Mosmann, J. Immunol. Methods, 65(1-2), 55-63 (1983)).
(§2) The cytotoxicity of each drug was determined and expressed as the percent of cells killed (“% kill”).
In general terms: Tetrazolium assays rely on reduction of a dye to a coloured formazan, in cell work by metabolically active cells.

The test system of another test is LS-174T. Description: MTT cytotoxicity assay (% kill), LS-174T. It counts as cell-based, human. Conditions: 1.0 μg/mL, MTT after five days. As to the method:
as §1, §2

Test [1] deals with Colon 38 (murine colon adenocarcinoma). Description: Disk diffusion assay, zone of inhibition, Colon 38; zone differentials, potency and product. The test is classed as cell-based. The arrangement: key to C38ΔL1210 / C38ΔCFU: difference of zone of inhibition values, in zone units. Conditions: for Sum: C38ΔL1210 plus C38ΔCFU; for C38ΔL1210 / C38ΔCFU: difference between zone of inhibition values; for C38ΔL1210: Colon38 vs L1210 leukemia; for C38ΔCFU: Colon38 vs normal cell CFU-GM; for Product: potency multiplied by zone differentials. As to the method:
A disk diffusion assay was performed to define the differential cell killing ability of 15-O-(3′-hydroxy-3′-isopropyl-4′-methylpentanoyl)bruceolide. Seven cell types were assayed: L1210 (ATCC CCL-219) (murine leukemia), CCRF-CEM (ATCC CCL-119) (human leukemia), Colon 38 (murine colon adenocarcinoma), HCT116 (ATCC CCL-247) (human colorectal carcinoma), H125 (human lung carcinoma). The murine and human granulocyte/macrophage progenitor cell line (CFU-GM), served as controls.
Colon 38 cells (about 1 gram) were cut into small fragments in 15 mL of Hank's Balanced Salt Solution (HBSS) over a 100-mesh sieve and gently forced through by the scissors with HBSS constantly perfusing the sieve. The resulting material was then drawn into and out of a 5 mL syringe without a needle to further disperse the cell clumps. The cell solution was diluted and plated in 0.3% agarose in DMEM plus 10% heat-inactivated Bovine Calf Serum (BCS). For plating of all of the cell types (except controls), the 60 mm plates were first prepared with a hard agar bottom layer (0.6% agar in RPMI-1640 plus 15% BCS).
A 15 μl sample of each compound was dropped onto a 6.5 mm disk (Baxter filter disks). The disks were allowed to dry overnight and then placed close to the edge of a petri dish. Depending upon the cell type, the dishes were incubated for 7 to 10 days, and examined by an inverted stereo-microscope (10×) for measurement of the zone of inhibition. The zone of inhibition was measured from the edge of the filter disk to the beginning of normal-sized colony formation. The diameter of the filter disk, 6.5 mm, was arbitrarily taken as a zone of 200 units. Compounds that were selective for killing solid tumors, as compared to leukemia or normal cells (“solid tumor selective”) were defined as those compounds which produced a difference in zones between solid tumor cells and either normal or leukemia cells of at least 250 units. The results of this analysis are set forth in Table 4, which illustrates the relative diameters of the zones of inhibition by various drugs on the growth of the respective cell types at various drug dilutions.
The degree of differential sensitivity of several inventive compounds was compared with respect to the Colon38 cell line, the L1210 cell line, and the control CFU-GM cell lines. The degree of differential sensitivity was estimated by calculating the difference between the zone of inhibition values, as determined in Example 6, for the solid tumor compared to either the leukemia (C38ΔL1210) or normal cell (C38ΔCFU).
The potency of each of several inventive compounds was determined by identifying the dilution required to yield an average zone of inhibition of 500 units for the Colon38 cell type. Then the potency and the zone differentials were multiplied to define a “product” (see Table 5), which can be used to rank the compounds tested for their potential for further development; the greater the product value the greater the probability of useful chemotherapeutic utility.

The mark [2] stands for this setting: listed as 15-O-(allyloxycarbonyl) bruceolide.

On to `C=CCOC(=O)O[C@H]1C(=O)O[C@@H]2C[C@H]3C(C)=C(O)C(=O)C[C@]3(C)[C@H]3[C@@H](O)[C@H](O)[C@@]4(C(=O)OC)OC[C@]32[C@@H]14` [15-O-(allyloxycarbonyl)-bruceolide], for which the results for the “% Kill, SK-N-AS” value in the test with SK-N-AS (1 h exposure) and with SK-N-AS (24 h exposure) were 1% and 43%, respectively. For the same compound, the “% Kill, LS-174T” value stood at 1% in the test with LS-174T (1 h exposure) and 43% with LS-174T (24 h exposure). Also, the Sum was determined as 1050 in test [1] and 600 in test [1] (setting [2]). Moreover, the C38ΔL1210 in test [1] came out at 500; in test [1] (setting [2]), 350. For the same compound, the C38ΔCFU in test [1] is 550; in test [1] (setting [2]) it was 250. Besides, the Product came out at 4100 in test [1] and 3600 in test [1] (setting [2]).
Take `COC(=O)C12OCC34C(CC5C(C)=C(O)C(=O)CC5(C)C3C(O)C1O)OC(=O)C(OC(=O)C=C1CCCC1)C24` (centres unmarked) [15-O-(cyclopentylideneacetyl)-bruceolide]: the “% Kill, SK-N-AS” value with SK-N-AS (1 h exposure) stood at 0%. Also, the “% Kill, SK-N-AS” value in the test on SK-N-AS (24 h exposure) worked out at 50%. Further, the “% Kill, LS-174T” value in the test with LS-174T (1 h exposure) stood at 0%. Moreover, the “% Kill, LS-174T” value in the test with LS-174T (24 h exposure) is 50%. In test [1], the Sum came to 800, the C38ΔL1210 stood at 350, the C38ΔCFU stood at 450 and the Product came to 4000.
For the compound `COC(=O)C12OCC34C(CC5C(C)=C(O)C(=O)CC5(C)C3C(O)C1O)OC(=O)C(OC(=O)CC1(O)CCCCC1)C24` (centres unmarked) [15-O-[(1′-hydroxycyclohexyl)-acetyl]-bruceolide], the “% Kill, SK-N-AS” value in the test on SK-N-AS (1 h exposure) came to 16%. The “% Kill, SK-N-AS” value in the test with SK-N-AS (24 h exposure) amounted to 80%. Also, in the test on LS-174T (1 h exposure), the “% Kill, LS-174T” value was determined as 23%. Besides, the “% Kill, LS-174T” value in the test on LS-174T (24 h exposure) is given as 62%. In test [1], the Sum amounted to 750, the C38ΔL1210 amounted to 300, the C38ΔCFU is reported as 450 and the Product stood at 3000.
In the case of `CCCCCC(=O)OC1C(=O)OC2CC3C(C)=C(O)C(=O)CC3(C)C3C(O)C(O)C4(C(=O)OC)OCC23C14` (centres unmarked) [15-O-hexanoylbruceolide], in the test on SK-N-AS (1 h exposure), the “% Kill, SK-N-AS” value stood at 0%. Moreover, in the test on SK-N-AS (24 h exposure), the “% Kill, SK-N-AS” value was 41%. For the same compound, in the test with LS-174T (1 h exposure), the “% Kill, LS-174T” value is reported as 19%. In addition, in the test on LS-174T (24 h exposure), the “% Kill, LS-174T” value turned out to be 57%. Besides, in test [1], the Sum came to 600, the C38ΔL1210 is on record as 400, the C38ΔCFU was 200 and the Product came out at 600.
On to `COC(=O)C12OCC34C(CC5C(C)=C(O)C(=O)CC5(C)C3C(O)C1O)OC(=O)C(OC(=O)Cc1ccccc1)C24` (centres unmarked) [15-O-phenylacetyl bruceolide], for which the “% Kill, SK-N-AS” value in the test on SK-N-AS (1 h exposure) was 0%. In addition, the “% Kill, SK-N-AS” value in the test on SK-N-AS (24 h exposure) came to 38%. In addition, the “% Kill, LS-174T” value in the test on LS-174T (1 h exposure) is on record as 20%. Moreover, in the test on LS-174T (24 h exposure), the “% Kill, LS-174T” value is 61%. Besides, in test [1], the Sum was 1000, the C38ΔL1210 turned out to be 500, the C38ΔCFU was 500 and the Product stood at 4000.
